Laboratory results: patent US20180291335A1, “MODIFIED POLYNUCLEOTIDES FOR ALTERING CELL PHENOTYPE” (ModernaTX, Inc., priority 2012, published 2018)

System: human embryonic kidney 293 (HEK293) cells
Assay: Cytotoxicity of NTPs, CYTO TOX-GLO assay
Assay type: cell-based
Protocol: The cytotoxicity of natural and modified nucleoside triphosphates (NTPs) alone or in combination with other bases, was analyzed in human embryonic kidney 293 (HEK293) cells in the absence of transfection reagent. […] 10 ul of the NTPs outlined in Table 12 were combined with 10 ul of lipid dilution and incubated for 30 minutes to form a complex before 80 ul of the HEK293 cell suspension was added to the NTP complex.
Natural and modified NTPs were transfected at a concentration of 2.1 nM, 21 nM, 210 nM, 2.1 um, 21 uM, 210 um or 2.1 mM. NTPs in combination were transfected at a total concentration of NTPs of 8.4 nM, 84 nM, 840 nM, 8.4 uM, 84 uM, 840 uM and 8.4 mM. […] The cytotoxicity of the NTPs and the modified G-CSF mRNA was assayed at 4, 24, 48 and 72 hours post addition to the HEK293 cells using a CYTO TOX-GLO™ assay from Promega (Madison, Wis.) following the manufacturer protocol except pippeting was used for lysing the cells instead of shaking the plates.

Molecule: Cc1c[nH]c(=O)nc1N [5-methyl cytosine]
- percent of viable cells (human, 4 h, 2.1 nM): 92.23%
- percent of viable cells (human, 4 h, 21 nM): 91.40%
- percent of viable cells (human, 4 h, 210 nM): 92.31%
- percent of viable cells (human, 4 h, 2.1 uM): 91.31%
- percent of viable cells (human, 4 h, 21 uM): 91.16%
- percent of viable cells (human, 4 h, 210 uM): 91.54%
- percent of viable cells (human, 4 h, 2.1 mM): 92.01%
- percent of viable cells (human, 24 h, 2.1 nM): 86.35%
- percent of viable cells (human, 24 h, 21 nM): 86.37%
- percent of viable cells (human, 24 h, 210 nM): 84.71%
- percent of viable cells (human, 24 h, 2.1 uM): 85.14%
- percent of viable cells (human, 24 h, 21 uM): 84.72%
- percent of viable cells (human, 24 h, 210 uM): 85.76%
- percent of viable cells (human, 24 h, 2.1 mM): 87.97%
- percent of viable cells (human, 48 h, 2.1 nM): 88.18%
- percent of viable cells (human, 48 h, 21 nM): 87.10%
- percent of viable cells (human, 48 h, 210 nM): 86.44%
- percent of viable cells (human, 48 h, 2.1 uM): 86.18%
- percent of viable cells (human, 48 h, 21 uM): 85.74%
- percent of viable cells (human, 48 h, 210 uM): 85.94%
- percent of viable cells (human, 48 h, 2.1 mM): 87.29%
- percent of viable cells (human, 72 h, 2.1 nM): 91.93%
- percent of viable cells (human, 72 h, 21 nM): 92.10%
- percent of viable cells (human, 72 h, 210 nM): 89.97%
- percent of viable cells (human, 72 h, 2.1 uM): 90.92%
- percent of viable cells (human, 72 h, 21 uM): 92.26%
- percent of viable cells (human, 72 h, 210 uM): 88.10%
- percent of viable cells (human, 72 h, 2.1 mM): 96.08%

Molecule: Adenine
- percent of viable cells (HEK293, individual NTP 2.1 nM, 4 hr): 93.48%
- percent of viable cells (HEK293, individual NTP 2.1 nM, 24 hr): 86.44%
- percent of viable cells (HEK293, individual NTP 2.1 nM, 48 hr): 92.12%
- percent of viable cells (HEK293, individual NTP 2.1 nM, 72 hr): 95.74%
- percent of viable cells (HEK293, individual NTP 21 nM, 4 hr): 93.21%
- percent of viable cells (HEK293, individual NTP 21 nM, 24 hr): 87.19%
- percent of viable cells (HEK293, individual NTP 21 nM, 48 hr): 91.13%
- percent of viable cells (HEK293, individual NTP 21 nM, 72 hr): 93.88%
- percent of viable cells (HEK293, individual NTP 210 nM, 4 hr): 90.36%
- percent of viable cells (HEK293, individual NTP 210 nM, 24 hr): 86.94%
- percent of viable cells (HEK293, individual NTP 210 nM, 48 hr): 89.17%
- percent of viable cells (HEK293, individual NTP 210 nM, 72 hr): 92.22%
- percent of viable cells (HEK293, individual NTP 2.1 uM, 4 hr): 90.23%
- percent of viable cells (HEK293, individual NTP 2.1 uM, 24 hr): 86.81%
- percent of viable cells (HEK293, individual NTP 2.1 uM, 48 hr): 89.80%
- percent of viable cells (HEK293, individual NTP 2.1 uM, 72 hr): 94.58%
- percent of viable cells (HEK293, individual NTP 21 uM, 4 hr): 91.20%
- percent of viable cells (HEK293, individual NTP 21 uM, 24 hr): 86.86%
- percent of viable cells (HEK293, individual NTP 21 uM, 48 hr): 89.94%
- percent of viable cells (HEK293, individual NTP 21 uM, 72 hr): 93.83%
- percent of viable cells (HEK293, individual NTP 210 uM, 4 hr): 85.97%
- percent of viable cells (HEK293, individual NTP 210 uM, 24 hr): 87.31%
- percent of viable cells (HEK293, individual NTP 210 uM, 48 hr): 90.55%
- percent of viable cells (HEK293, individual NTP 210 uM, 72 hr): 94.81%
- percent of viable cells (HEK293, individual NTP 2.1 mM, 4 hr): 90.03%
- percent of viable cells (HEK293, individual NTP 2.1 mM, 24 hr): 88.42%
- percent of viable cells (HEK293, individual NTP 2.1 mM, 48 hr): 93.71%
- percent of viable cells (HEK293, individual NTP 2.1 mM, 72 hr): 97.49%
